Assay results: US20260200921A1, “SUBSTITUTED AMINOPYRIDINE COMPOUNDS AS AKT INHIBITORS” (Atavistik Bio, Inc., priority 2023, published 2026)

Legend:
AKT1 E17K = target: T1, AKT1 E17K (Homo sapiens, UniProt P31749, E17K); test: AKT1 E17K kinase assay (TR-FRET, Lance); assay type: biochemical; conditions: full-length human recombinant AKT1 E17K activated by PDPK1; Ulight-CREBtide substrate; either 50 μM ATP or 2 mM ATP
T1 construct: Purified human recombinant kinase full-length AKT1 E17K was expressed in insect cells; made in house; host or cells: insect cells
T1 sequence (P31749 whole entry E17K): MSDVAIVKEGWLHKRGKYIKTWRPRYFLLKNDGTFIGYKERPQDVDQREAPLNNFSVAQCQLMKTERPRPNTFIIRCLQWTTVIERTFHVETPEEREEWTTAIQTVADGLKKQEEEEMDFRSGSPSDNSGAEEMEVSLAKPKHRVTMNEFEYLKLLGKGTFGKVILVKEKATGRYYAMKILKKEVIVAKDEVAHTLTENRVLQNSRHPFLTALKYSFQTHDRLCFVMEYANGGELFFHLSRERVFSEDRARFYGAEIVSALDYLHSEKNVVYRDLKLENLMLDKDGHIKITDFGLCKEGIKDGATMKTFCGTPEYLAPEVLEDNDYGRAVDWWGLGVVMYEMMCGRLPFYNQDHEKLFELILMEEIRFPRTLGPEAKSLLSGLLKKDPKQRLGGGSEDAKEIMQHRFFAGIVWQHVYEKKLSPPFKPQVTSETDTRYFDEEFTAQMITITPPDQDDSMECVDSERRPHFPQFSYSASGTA
Experimental: AKT1 E17K kinase assay: Inhibitory effects of compounds on AKT1 E17K were undertaken in a 10-pt dose response kinase activity assay measuring phospho-peptide product formation based on TR-FRET signal as described in the following paragraph.
(§1) Purified human recombinant kinase full-length AKT1 E17K was expressed in insect cells and activated in vitro by PDPK1. Ulight™-CREBtide (PerkinElmer, catalog number TRF0107) was used as the peptide substrate. The reaction buffer consisted of 50 mM HEPES pH 7.5, 10 mM MgCl2, 0.01% Triton X-100, 0.01% BSA, 2 mM DTT, 0.6 nM AKT1 E17K, 50 nM Ulight™-CREBtide and either 50 μM ATP or 2 mM ATP. The compound solution was prepared as 10 mM DMSO stock. For the assay, a 1:3 serial dilution 10-pt dose response of test compounds, in duplicate, for each concentration were dispensed into a 384-well plate (Corning, catalog number 4513). Final DMSO concentration in the assay was 1%. The enzyme mixture (5 μL, 1.2 nM) were added and the mixture was incubated for 15 min at RT prior to the start of the kinase reaction by the addition of 5 μL substrate mixture (100 nM Ulight™-CREBtide). The reaction was stopped after 60 min of incubation at RT by the addition of 10 μL of Detection Mix (PerkinElmer, #CR97-100) consisting of Europium-anti-phospho-CREB (Ser133) (Perkin Elmer, catalog numberTRF0200). Incubation with the detection mix for a further 60 min allowed binding of antibody to the phospho-Ulight™ CREBtide. The fluorescence emissions at 620 nm and 665 nm after excitation at 350 nm was measured using Envision reader. The ratio of the emissions at 665 nm and at 620 nm provided the measure for the amount of phosphorylated CREBtide product of AKT1 E17K kinase activity. To determine the IC50 values, the data was normalized (enzyme reaction without inhibitor=0% inhibition, all other assay components but no enzyme=100% inhibition) and IC50 values were calculated by a 4-parameter fit using an in-house developed protocol.

wildtype AKT1 = target: T2, wildtype AKT1 (Homo sapiens, UniProt P31749); test: AKT1 kinase assay, wildtype (TR-FRET, Lance); assay type: biochemical; conditions: full-length human recombinant wildtype AKT1 activated by PDPK1; Ulight-CREBtide substrate; either 50 μM ATP or 2 mM ATP
T2 construct: Purified human recombinant kinase full-length wildtype AKT1 was expressed in insect cells; made in house; host or cells: insect cells
T2 sequence (P31749 whole entry): as the sequence (P31749 whole entry E17K) above, with K17E counted along it
Experimental: AKT1 kinase assay: Inhibitory effects of compounds on wildtype AKT1 were undertaken in a 10-pt dose response kinase activity assay measuring phospho-peptide product formation based on TR-FRET signal as described in the following paragraph.
as §1, with “full-length wildtype” for “full-length”, “AKT1” for “AKT1 E17K”, “nM AKT1,” for “nM AKT1 E17K,”, “Mix (PerkinElmer.” for “Mix (PerkinElmer,”

Structure (SMILES) | IC50 (AKT1 E17K) | IC50 (wildtype AKT1)
Nc1ncccc1-c1nc2ccc(-c3ccccc3)nc2n1-c1ccc(CNC(=O)c2ccc(-n3cc(C(=O)O)cn3)cc2)cc1 [Compound I-11, 1-(4-((4-(2-(2-aminopyridin-3-yl)-5-phenyl-3H-imidazo[4,5-b]pyridin-3-yl)benzyl)carbamoyl)phenyl)-1H-pyrazole-4-carboxylic acid] | < 0.05 µM | < 0.5 µM
N#Cc1cnn(-c2ccc(C(=O)NCc3ccc(-n4c(-c5cccnc5N)nc5ccc(-c6ccccc6)nc54)cc3)cc2)c1 [Compound I-12, N-(4-(2-(2-aminopyridin-3-yl)-5-phenyl-3H-imidazo[4,5-b]pyridin-3-yl)benzyl)-4-(4-cyano-1H-pyrazol-1-yl)benzamide] | 0.2 to 0.5 µM | < 0.5 µM
Cc1cc(C#N)n(-c2ccc(C(=O)NCc3ccc(-n4c(-c5cccnc5N)nc5ccc(-c6ccccc6)nc54)cc3)cc2)n1 [Compound I-13, N-(4-(2-(2-aminopyridin-3-yl)-5-phenyl-3H-imidazo[4,5-b]pyridin-3-yl)benzyl)-4-(5-cyano-3-methyl-1H-pyrazol-1-yl)benzamide] | 0.2 to 0.5 µM | < 0.5 µM
N#Cc1cc(O)n(-c2ccc(C(=O)NCc3ccc(-n4c(-c5cccnc5N)nc5ccc(-c6ccccc6)nc54)cc3)cc2)n1 [Compound I-15, N-(4-(2-(2-aminopyridin-3-yl)-5-phenyl-3H-imidazo[4,5-b]pyridin-3-yl)benzyl)-4-(3-cyano-5-hydroxy-1H-pyrazol-1-yl)benzamide] | 0.05 to 0.2 µM | < 0.5 µM
Cc1cc(C(N)=O)n(-c2ccc(C(=O)NCc3ccc(-n4c(-c5cccnc5N)nc5ccc(-c6ccccc6)nc54)cc3)cc2)n1 [Compound I-16, 1-(4-((4-(2-(2-aminopyridin-3-yl)-5-phenyl-3H-imidazo[4,5-b]pyridin-3-yl)benzyl)carbamoyl)phenyl)-3-methyl-1H-pyrazole-5-carboxamide] | 0.2 to 0.5 µM | < 0.5 µM
Cc1cc(C(N)=O)nn1-c1ccc(C(=O)NCc2ccc(-n3c(-c4cccnc4N)nc4ccc(-c5ccccc5)nc43)cc2)cc1 [Compound I-17, 1-(4-((4-(2-(2-aminopyridin-3-yl)-5-phenyl-3H-imidazo[4,5-b]pyridin-3-yl)benzyl)carbamoyl)phenyl)-5-methyl-1H-pyrazole-3-carboxamide] | 0.2 to 0.5 µM | < 0.5 µM
Cc1cc(O)n(-c2ccc(C(=O)NCc3ccc(-n4c(-c5cccnc5N)nc5ccc(-c6ccccc6)nc54)cc3)cn2)n1 [Compound I-18, N-(4-(2-(2-aminopyridin-3-yl)-5-phenyl-3H-imidazo[4,5-b]pyridin-3-yl)benzyl)-6-(5-hydroxy-3-methyl-1H-pyrazol-1-yl)nicotinamide] | < 0.05 µM | < 0.5 µM
Cc1cc(O)n(-c2ccc(C(=O)NCc3ccc(-n4c(-c5cccnc5N)nc5ccc(-c6ccccc6)nc54)cc3)nc2)n1 [Compound I-19, N-(4-(2-(2-aminopyridin-3-yl)-5-phenyl-3H-imidazo[4,5-b]pyridin-3-yl)benzyl)-5-(5-hydroxy-3-methyl-1H-pyrazol-1-yl)picolinamide] | 0.2 to 0.5 µM | < 0.5 µM
Nc1ncccc1-c1nc2ccc(-c3ccccc3)nc2n1-c1ccc(CNC(=O)c2ccc(-c3nn[nH]n3)cc2)cc1 [Compound I-20, N-(4-(2-(2-aminopyridin-3-yl)-5-phenyl-3H-imidazo[4,5-b]pyridin-3-yl)benzyl)-4-(2H-tetrazol-5-yl)benzamide] | < 0.05 µM | < 0.5 µM
Nc1ncccc1-c1nc2ccc(-c3ccccc3)nc2n1-c1ccc(CNC(=O)c2cccc(-c3nn[nH]n3)c2)cc1 [Compound I-21, N-(4-(2-(2-aminopyridin-3-yl)-5-phenyl-3H-imidazo[4,5-b]pyridin-3-yl)benzyl)-3-(2H-tetrazol-5-yl)benzamide] | 0.05 to 0.2 µM | < 0.5 µM
Cc1cc(O)n(-c2ccc(C(=O)NCc3ccc(-n4c(-c5cccnc5N)nc5ccc(-c6ccccc6)nc54)nc3)cc2)n1 [Compound I-22, N-[[6-[2-(2-amino-3-pyridyl)-5-phenyl-imidazo[4,5-b]pyridin-3-yl]-3-pyridyl]methyl]-4-(5-hydroxy-3-methyl-pyrazol-1-yl)benzamide] | ≥ 0.5 µM | > 0.5 µM
Cc1cc(O)n(-c2ccc(C(=O)NCc3ccc(-n4c(-c5cccnc5N)nc5cc(-c6ccccc6)cnc54)cc3)cc2)n1 [Compound I-23, N-(4-(2-(2-aminopyridin-3-yl)-6-phenyl-3H-imidazo[4,5-b]pyridin-3-yl)benzyl)-4-(5-hydroxy-3-methyl-1H-pyrazol-1-yl)benzamide] | ≥ 0.5 µM | > 0.5 µM
Cc1cc(O)n(-c2ccc(C(=O)NCc3ccc(-n4c(-c5cccnc5N)nc5cc(-c6cccnc6)cnc54)cc3)cc2)n1 [Compound I-24, N-[[4-[2-(2-amino-3-pyridyl)-6-(3-pyridyl)imidazo[4,5-b]pyridin-3-yl]phenyl]methyl]-4-(5-hydroxy-3-methyl-pyrazol-1-yl)benzamide] | ≥ 0.5 µM | < 0.5 µM
Cc1cc(O)n(-c2ccc(C(=O)N3CC(c4ccc(-n5c(-c6cccnc6N)nc6ccc(-c7ccccc7)nc65)cc4)C3)cc2)n1 [Compound I-25, (3-(4-(2-(2-aminopyridin-3-yl)-5-phenyl-3H-imidazo[4,5-b]pyridin-3-yl)phenyl)azetidin-1-yl)(4-(5-hydroxy-3-methyl-1H-pyrazol-1-yl)phenyl) methanone] | < 0.05 µM | < 0.5 µM
Nc1ncccc1-c1nc2ccc(-c3ccccc3)nc2n1-c1ccc(C2CN(C(=O)c3ccc(-c4nn[nH]n4)cc3)C2)cc1 [Compound I-26, (4-(2H-tetrazol-5-yl)phenyl)(3-(4-(2-(2-aminopyridin-3-yl)-5-phenyl-3H-imidazo[4,5-b]pyridin-3-yl)phenyl)azetidin-1-yl)methanone] | < 0.05 µM | < 0.5 µM
Nc1ncccc1-c1nc2ccc(-c3ccccc3)nc2n1-c1ccc(C2CN(C(=O)c3cccc(-c4nn[nH]n4)c3)C2)cc1 [Compound I-27, (3-(2H-tetrazol-5-yl)phenyl)(3-(4-(2-(2-aminopyridin-3-yl)-5-phenyl-3H-imidazo[4,5-b]pyridin-3-yl)phenyl)azetidin-1-yl)methanone] | 0.05 to 0.2 µM | < 0.5 µM
Cc1cc(O)n(-c2ccc(C(=O)NCc3ccc(-n4c(-c5cccnc5N)nc5ccc(-c6ccccc6)cc54)cc3)cc2)n1 [Compound I-28, N-[[4-[2-(2-amino-3-pyridyl)-6-phenyl-benzimidazol-1-yl]phenyl]methyl]-4-(5-hydroxy-3-methyl-pyrazol-1-yl)benzamide] | ≥ 0.5 µM | > 0.5 µM
Cn1ncc(-c2ccc(C(=O)NCc3ccc(-n4c(-c5cccnc5N)nc5ccc(-c6ccccc6)nc54)cc3)cc2)c1O [Compound I-29, N-[[4-[2-(2-amino-3-pyridyl)-5-phenyl-imidazo[4,5-b]pyridin-3-yl]phenyl]methyl]-4-(5-hydroxy-1-methyl-pyrazol-4-yl)benzamide] | ≥ 0.5 µM | < 0.5 µM
